Laboratory results from patent publication US20130143884A1, “4-[2-[ [5-METHYL-1-(2-NAPHTALENYL)-1H-PYRAZOL-3-YL]OXY]ETHYL] MORPHOLINE SALTS” (priority 2009, published 2013).
Values joined by “and” are separate entries in the source; they are usually repeats but may differ in a detail not shown here. Equal values may be shown once. Where a name gives a salt, the structure may show the parent alone. Read-outs that look alike come from different tables or passages of the source.

How the values were obtained:
[1] = pKa; format: physicochemical
[2] = Thermodynamic solubility at pH 7.4; format: physicochemical
Procedure: General protocol for thermodynamic solubility at pH 7.4 and pH 2 is described below.
A) Thermodynamic Solubility at pH 7.4
Buffer phosphates pH 7.4 was prepared as follows: • A solution 25 mM of Na2HPO4.12H2O (for 1 l of water, weight 8.96 g) was prepared • A solution 25 mM de KH2PO4 (for 1 l of water weight 3.4 g) was prepared. • 812 ml of disodium phosphate solution+182 ml of potassium phosphate solution were mixed and pH checked according was 7.4.
Samples were equilibrated using: • Stirrer Thermomixer Control of Eppendorf a 25° C. y 1250 rpm • pHmeter with combined electrode of pH semimicro
2 mg in an HPLC vial (by duplicate) was weight and 1 ml of buffer was added. The vial was maintained at 25° C., in the stirrer Thermomixer Comfort., during 24 hours. Centrifugation at 4000 rpm followed during 15 min.
The resulting upper layer was collected with a glass pipette and transferred to the HPLC vials. Again centrifuged and the injector programmed at 2.7 mm high.
Sol.A: 2 mg in 5 ml methanol (400 ug/ml)
Sol.B: 1 ml Sol.A to 10 ml with methanol (40 ug/ml)
Sol.C: 5 ml Sol.B to 50 ml with methanol (4 ug/ml)
Sol.D: 4 ml Sol.C to 10 ml with methanol (1.6 ug/ml)
Sol.E: 5 ml Sol.D to 25 ml with methanol (0.32 ug/ml)
10 μl of all prepared solutions were injected, beginning with the more diluted standard. Blanks were also injected, for checking the absence of contamination.
The standard calibration curve was done (see FIG. 29). Consider Y=area y X=μg injected standard
10 μl of problem compound solution were injected, by duplicate and the average peak area (if quantifiable) interpolated in the standard curve (see Tables 9, 10 and 11 and example below).
Chromatographic Conditions • Column: XBridge C18 (or similar) 2.5 μm 4.6×50 mm • Temperature: 35° C. • Mobile phase: ACN/ammonium bicarbonate 10 mM. • Gradient: 0-3.5 min: from 15% ACN to 95% ACN • 3.5-5 min: 95% ACN • 5-6 min: 95 a 15% ACN • 6-8 min: 15% ACN • Flow: 1.5 ml/min • Detection: around the UV absorption maximum

[3] = Pharmacokinetics in rats after single oral administration (plasma, HPLC with fluorescence detection); format: in vivo; settings: Wistar Hannover; rat plasma, single oral 25 mg/kg (expressed as compound 63)
Procedure: The pharmacokinetics of Example 1 in Wistar Hannover rats following a single oral administration of 25 mg/kg (expressed as compound 63) was tested. For this purpose, plasma samples were collected at different time points and analyzed using HPLC (High pressure liquid chromatography) method with fluorescence detection.
Two groups were used in this test. Group 1 received vehicle and Group 2 received Example 1 at 25 mg/kg with an administration volume of 10 mL/kg.
Blood samples were extracted from the retro-orbital zone at the following time points: pre-dose, 15 min, 30 min, 1 h, 1.5 h, 2 h, 3 h, 4 h, 5 h, 6 h, 8 h and 24 h. Blood was then transferred into heparin-containing plastic tubes. Plasma was obtained by centrifugation at approximately 3000 rpm for 10 min at 4° C. These plasma samples were labeled and frozen at a temperature of approximately −65° C. until analysis.
Samples were analyzed by a previously validated analytical method. Briefly, rat plasma samples were thawed at room temperature and centrifuged at 3000 rpm for 10 min at approximately 4° C. 300 μl of plasma samples were placed into vials and spiked with 30 μl of internal standard working solution. The vials were capped and mixed thoroughly. […]
The peaks corresponding to Example 1 and its internal standard were quantified by fluorescence detection at an excitation wavelength of 260 nm and an emission wavelength of 360 nm. […]
The peak plasma concentration values (Cmax) and the time to reach such concentration (tmax) were obtained directly from the experimental data. The elimination constant (kel) was calculated by linear regression of the last phase of the curve (log concentration vs. time). The elimination half-life (t1/2) was determined with the expression t1/2=0.693/kel. The area under the curve of plasma levels vs. time from zero to the last time determined (AUC0-t) was calculated be means of the trapezoidal method. The area under the curve of plasma levels vs time from zero to infinity (AUC0-∞) was calculated with the expression: AUC0-∞=AUC0-t+Clast/kel, where Clast is the plasma concentration at the last time measured.

[4] = Dissolution and absorption profile in vivo; settings: compared with its related base
[5] = Descriptive solubility in water and solvents; format: physicochemical
[6] = Solubility of the salts in crystallization screening solvents; format: physicochemical; settings: initial screening solvents; for the maleate except ethyl acetate
Procedure: The product obtained in the initial preparation was solved in the minimum amount of crystallization solvent at its boiling temperature or at a maximum of 75° C. […] The mother liquors were cooled to room temperature and kept for 24 hours.
Initially, a crystallization screening of compound 63 with the ten counterions depicted in table 2 was performed, at a 40 mg scale, in the following ten solvents: acetone, ethyl acetate, chloroform, N,N-dimethylformamide, methanol, ethanol, isopropanol, 2-butanol, acetonitrile and tetrahydrofuran. The procedure started with the preparation of equimolar mixtures, from known concentration methanol dissolutions, of compound 63 and the different acid counterions. The resulting crude, after the methanol evaporation, was crystallized from the hot solvents formerly mentioned. Different crystallization strategies were used depending on the solubility of each acid and compound 63 mixture, and therefore the solids were obtained using different procedures. For some acids, the mixture was not soluble in the hot crystallization solvent, obtaining a slurry solid. In other cases, the solid crystallized during room temperature cooling of the solution, or after several days at 4° C. or at −18° C. Finally, in some crystallization attempts, the solid was obtained after slow evaporation of the solvent at room temperature. […]

[7] = treatment and prevention of chronic and acute pain, particularly neuropathic pain; reported in WO 2006/021462; cited from earlier work
[8] = molecular target: sigma 1 (σ-1) site (Homo sapiens, UniProt Q99720); settings: cited from earlier work
[9] = molecular target: sigma 2 (σ-2) site (Homo sapiens, UniProt Q5BJF2); settings: cited from earlier work
Chain of sigma 2 (σ-2) site (Q5BJF2 whole entry): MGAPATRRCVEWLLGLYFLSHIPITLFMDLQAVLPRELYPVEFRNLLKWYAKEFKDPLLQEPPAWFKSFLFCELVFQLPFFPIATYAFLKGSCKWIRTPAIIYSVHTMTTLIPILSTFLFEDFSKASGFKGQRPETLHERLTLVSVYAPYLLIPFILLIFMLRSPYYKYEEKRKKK

Chain of sigma 1 (σ-1) site (Q99720 whole entry): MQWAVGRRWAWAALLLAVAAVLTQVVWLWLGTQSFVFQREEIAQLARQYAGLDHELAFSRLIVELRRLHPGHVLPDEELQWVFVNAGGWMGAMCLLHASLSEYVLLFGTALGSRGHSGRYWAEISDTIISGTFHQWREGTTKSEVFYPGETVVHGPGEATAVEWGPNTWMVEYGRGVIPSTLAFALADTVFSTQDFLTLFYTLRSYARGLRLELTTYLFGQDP

With `Cc1cc(OCCN2CCOCC2)nn1-c1ccc2ccccc2c1` [Example 1, 4-[2-[[5-methyl-1-(2-naphthalenyl)-1H-pyrazol-3-yl]oxy]ethyl]morpholine hydrochloride] the pKa ([1]; read-out: pKa) was 6.73, the solubility thermodynamic at 24 h ([2]; aqueous buffer, thermodynamic from solid, pH=7.4, phosphate buffer 50 mM, 25° C., 24 hours) was 227 µg/mL and the “Conc. (single injections)” value ([2]; pH 7.4, duplicate samples, duplicate injections, hydrochloride) was 225.5 µg/mL and 229.0 µg/mL and 229.3 µg/mL and 225.3 µg/mL. For the same molecule, the “Conc. Mean” value ([2]; pH 7.4, mean of 4 injections) was 227.262 µg/mL, the AUC(0-inf) [3] was 1250 ng·h/mL and the AUC(0-t) [3] was 1220 ng·h/mL. The Cmax [3] was 1.15 µg/mL, the “Dissolution and absorption profile in vivo” value [4] was “better dissolution and absorption profile in vivo than its related base” and the “Solubility in 1N hydrochloric acid” value ([5]; 1N hydrochloric acid) was “freely soluble”. For the same molecule, the “Solubility in 1N sodium hydroxide” value ([5]; 1N sodium hydroxide) was “practically insoluble”, the Solubility in acetone ([5]; acetone) was “slightly soluble” and the “Solubility in dimethyl sulphoxide” value ([5]; dimethyl sulphoxide) was “freely soluble”. For the same molecule, the Solubility in ethanol ([5]; ethanol) was “sparingly soluble”, the “Solubility in ethyl acetate” value ([5]; ethyl acetate) was “practically insoluble” and the Solubility in methanol ([5]; methanol) was “freely soluble”. For the same molecule, the Solubility in water ([5]; water) was “very soluble”.
For `CCS(=O)(=O)O.Cc1cc(OCCN2CCOCC2)nn1-c1ccc2ccccc2c1` [ethanesulfonate salt], the “Solubility in all the solvents assayed (first set of ten solvents)” value [6] was over 200000 µg/mL.
For `Cc1cc(OCCN2CCOCC2)nn1-c1ccc2ccccc2c1` [compound 63, 4-[2-[[5-methyl-1-(2-naphthalenyl)-1H-pyrazol-3-yl]oxy]ethyl]morpholine], the pKa [1] is listed as 6.7, the Analgesic activity [7] is listed as “strong analgesic activity” and the Sigma-1 receptor activity ([8]; reported in WO 2006/021462) is listed as “highly selective sigma-1 (σ-1) receptor antagonist”.
In the case of SKF 10047 [reference compound], the “Affinity for the sigma 1 (σ-1) site” value [8] is listed as “nanomolar” and the “Affinity for the sigma 2 (σ-2) site” value [9] is listed as “micromolar”.
